SMILES strings stand for the structures. Structures can show the parent of a compound that is named as a salt.

For one experiment, the target named is hNav1.7 (Homo sapiens (Human), UniProt Q15858). Briefly: Tritiated sulfonamide competitive binding to membranes from cells expressing hNav1.7 and the β1 subunit.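 Further: Filter-bound radioactivity counted by liquid scintillation, nonspecific binding defined with excess unlabelled ligand, IC50 fitted to percent inhibition of specific binding.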
Chain of hNav1.7 (Q15858 other isoform, or with tags, fused parts or gaps): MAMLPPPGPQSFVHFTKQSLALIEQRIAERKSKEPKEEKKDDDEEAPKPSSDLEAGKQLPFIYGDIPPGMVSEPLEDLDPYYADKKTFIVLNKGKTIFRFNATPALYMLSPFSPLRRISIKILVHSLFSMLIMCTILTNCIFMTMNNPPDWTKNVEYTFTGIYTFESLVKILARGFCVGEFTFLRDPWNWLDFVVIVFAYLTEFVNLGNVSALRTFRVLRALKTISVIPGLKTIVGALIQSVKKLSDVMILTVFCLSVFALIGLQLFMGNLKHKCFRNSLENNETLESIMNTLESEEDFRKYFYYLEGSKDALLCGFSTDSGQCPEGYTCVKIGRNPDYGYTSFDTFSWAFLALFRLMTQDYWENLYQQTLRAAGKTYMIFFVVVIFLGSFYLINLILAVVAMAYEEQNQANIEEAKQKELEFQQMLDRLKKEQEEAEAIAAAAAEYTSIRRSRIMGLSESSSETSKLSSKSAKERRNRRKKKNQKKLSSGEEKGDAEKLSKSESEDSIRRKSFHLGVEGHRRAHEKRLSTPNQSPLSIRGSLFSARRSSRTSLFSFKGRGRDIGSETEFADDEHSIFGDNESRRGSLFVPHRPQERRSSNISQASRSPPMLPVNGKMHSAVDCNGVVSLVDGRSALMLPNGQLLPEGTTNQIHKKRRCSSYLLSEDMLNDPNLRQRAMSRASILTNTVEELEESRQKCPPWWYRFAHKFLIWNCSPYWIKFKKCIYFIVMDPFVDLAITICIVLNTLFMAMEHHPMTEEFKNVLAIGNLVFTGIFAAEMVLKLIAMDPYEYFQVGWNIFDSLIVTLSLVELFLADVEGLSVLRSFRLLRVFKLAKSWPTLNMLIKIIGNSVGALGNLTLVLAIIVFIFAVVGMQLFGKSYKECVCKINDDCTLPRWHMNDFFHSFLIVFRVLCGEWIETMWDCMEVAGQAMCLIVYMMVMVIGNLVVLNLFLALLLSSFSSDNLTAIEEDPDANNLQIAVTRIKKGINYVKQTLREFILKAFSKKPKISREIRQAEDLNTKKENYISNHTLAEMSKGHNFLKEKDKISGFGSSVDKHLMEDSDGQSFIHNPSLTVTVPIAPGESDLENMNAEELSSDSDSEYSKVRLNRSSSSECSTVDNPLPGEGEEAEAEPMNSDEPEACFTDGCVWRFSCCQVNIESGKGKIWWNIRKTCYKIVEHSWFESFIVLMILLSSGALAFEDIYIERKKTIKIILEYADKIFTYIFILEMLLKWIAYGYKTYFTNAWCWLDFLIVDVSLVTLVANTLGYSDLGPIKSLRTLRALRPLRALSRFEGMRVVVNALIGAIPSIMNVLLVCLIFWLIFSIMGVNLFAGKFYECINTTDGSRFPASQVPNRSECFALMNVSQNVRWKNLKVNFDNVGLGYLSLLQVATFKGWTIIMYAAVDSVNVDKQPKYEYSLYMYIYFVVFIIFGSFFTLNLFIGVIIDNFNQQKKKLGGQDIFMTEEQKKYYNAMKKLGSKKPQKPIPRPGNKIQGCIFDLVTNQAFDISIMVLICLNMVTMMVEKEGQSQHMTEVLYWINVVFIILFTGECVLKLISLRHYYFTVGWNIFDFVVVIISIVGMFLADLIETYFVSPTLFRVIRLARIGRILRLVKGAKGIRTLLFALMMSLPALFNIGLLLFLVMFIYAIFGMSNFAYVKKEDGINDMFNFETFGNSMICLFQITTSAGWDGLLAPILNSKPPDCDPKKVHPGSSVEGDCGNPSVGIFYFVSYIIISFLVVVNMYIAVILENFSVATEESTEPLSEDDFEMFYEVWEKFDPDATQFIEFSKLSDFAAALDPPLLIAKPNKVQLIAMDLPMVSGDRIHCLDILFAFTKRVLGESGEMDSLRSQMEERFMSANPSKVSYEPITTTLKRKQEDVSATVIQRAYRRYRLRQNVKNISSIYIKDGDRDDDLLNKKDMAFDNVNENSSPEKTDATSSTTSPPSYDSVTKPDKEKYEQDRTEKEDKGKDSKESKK
Chain of hNav1.7 (Q07699 19-218 partner): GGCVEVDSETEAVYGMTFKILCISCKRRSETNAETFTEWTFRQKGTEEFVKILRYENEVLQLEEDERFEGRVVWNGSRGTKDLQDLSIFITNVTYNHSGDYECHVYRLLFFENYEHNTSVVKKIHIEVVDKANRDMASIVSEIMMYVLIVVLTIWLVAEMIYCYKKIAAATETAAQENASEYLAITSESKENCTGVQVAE
Settings: not given
Take `CS(=O)(=O)NC(=O)c1cc(C2CC2)c(O[C@@H]2CCCN(Cc3ccnnc3)C2)cc1F` [Example 13, (R)-5-cyclopropyl-2-fluoro-N-(methylsulfonyl)-4-((1-(pyridazin-4-ylmethyl)piperidin-3-yl)oxy)benzamide]: the IC50 was found to be 1490 nM. In turn, `CS(=O)(=O)NC(=O)c1cc(C2CC2)c(CN2CCC([S+]([O-])c3cc(Cl)cc(Cl)c3)CC2)cc1F` (stereo not shown) [Example 534, 5-cyclopropyl-4-((4-((3,5-dichlorophenyl)sulfinyl)piperidin-1-yl)methyl)-2-fluoro-N-(methylsulfonyl)benzamide, trifluoroacetic acid salt] registered an IC50 of 879 nM.

The same experiment, now with this note: read-out: Ligand Binding Assay; 100 pM [3H]compound, membranes with hNav1.7 and β1 subunit, 18 h, room temperature.
For the compound `CS(=O)(=O)NC(=O)c1cc(C2CC2)c(OCC2CCN(Cc3ccc(Cl)c(C(F)(F)F)c3)CC2)cc1F` [Example 229, 4-((1-(4-Chloro-3-(trifluoromethyl)benzyl)piperidin-4-yl)methoxy)-5-cyclopropyl-2-fluoro-N-(methylsulfonyl)benzamide], the IC50 came out at 7.3 nM.

Regarding `CS(=O)(=O)NC(=O)c1cc(C2CC2)c(O[C@H]2CN(Cc3ccc(F)cc3Cl)CC(F)(F)C2)cc1F` [Example 445, (R)-4-((1-(2-chloro-4-fluorobenzyl)-5,5-difluoropiperidin-3-yl)oxy)-5-cyclopropyl-2-fluoro-N-(methylsulfonyl)benzamide], the IC50 amounted to 6.1 nM. Same read-out and setting: for `CCS(=O)(=O)NC(=O)c1cc(C2CC2)c(OCC2(C)CN(C(c3ccccc3)c3ccccc3)C2)cc1F` [Example 69, 4-((1-benzhydryl-3-methylazetidin-3-yl)methoxy)-5-cyclopropyl-N-(ethylsulfonyl)-2-fluorobenzamide] the value was 6.1 nM; for `C[C@H](c1cccc(F)c1)N1CCC(C)(COc2cc(F)c(C(=O)NS(C)(=O)=O)cc2C2CC2)CC1` (single isomer, unassigned) [Example 250], 43 nM; for `CS(=O)(=O)NC(=O)c1cc(C2CC2)c(OCC2CCN(C(c3cccc(Cl)c3)c3cccc(Cl)c3)CC2)cc1F` [Example 352, 4-((1-(bis(3-chlorophenyl)methyl)piperidin-4-yl)methoxy)-5-cyclopropyl-2-fluoro-N-(methylsulfonyl)benzamide, trifluoroacetic acid salt], 2 nM. `CS(=O)(=O)NC(=O)c1cc(C2CC2)c(OCC2CN([C@H](c3ccccc3)c3cccnc3)C2)cc1F` [Example 81, (R)-5-Cyclopropyl-2-fluoro-N-(methylsulfonyl)-4-((1-(phenyl(pyridin-3-yl)methyl)azetidin-3-yl)methoxy)benzamide]: the IC50 turned out to be 630 nM. Same read-out and setting: for `C[C@H](c1ccc(Cl)cc1Cl)N1CCC(COc2cc(F)c(C(=O)NS(C)(=O)=O)cc2C2CC2)CC1` [Example 239, (R)-5-cyclopropyl-4-((1-(1-(2,4-dichlorophenyl)ethyl)piperidin-4-yl)methoxy)-2-fluoro-N-(methylsulfonyl)benzamide] the value was 3.4 nM; for `CC1(COc2cc(F)c(C(=O)NS(=O)(=O)C3CC3)cc2C2CC2)CN(c2ccc(Cl)c(C(F)(F)F)n2)C1` [Example 485, 4-((1-(5-chloro-6-(trifluoromethyl)pyridin-2-yl)-3-methylazetidin-3-yl)methoxy)-5-cyclopropyl-N-(cyclopropylsulfonyl)-2-fluorobenzamide], 4.5 nM; for `CC1(COc2cc(F)c(C(=O)NS(C)(=O)=O)cc2C2CC2)CN(Cc2cc(C(F)(F)F)cc(Cl)c2F)C1` [Example 593, 4-((1-(3-chloro-2-fluoro-5-(trifluoromethyl)benzyl)-3-methylazetidin-3-yl)methoxy)-5-cyclopropyl-2-fluoro-N-(methylsulfonyl)benzamide], 9.9 nM. Consider `CC1(COc2cc(F)c(C(=O)NS(C)(=O)=O)cc2C2CC2)CCN(Cc2cc(Cl)cc(C(F)(F)F)c2)CC1` [Example 140, 4-((1-(3-chloro-5-(trifluoromethyl)benzyl)-4-methylpiperidin-4-yl)methoxy)-5-cyclopropyl-2-fluoro-N-(methylsulfonyl)benzamide], for which the IC50 turned out to be 3.5 nM. Regarding `CCS(=O)(=O)NC(=O)c1cc(C2CC2)c(OCC2CCN([C@H](COC)c3ccc(Cl)cc3Cl)CC2)cc1F` [Example 286, (S)-5-cyclopropyl-4-((1-(1-(2,4-dichlorophenyl)-2-methoxyethyl)piperidin-4-yl)methoxy)-N-(ethylsulfonyl)-2-fluorobenzamide], the IC50 was 5.4 nM. Still for that read-out and setting: next, `CS(=O)(=O)NC(=O)c1cc(C2CC2)c(OCC2CCN(Cc3ccccc3Cl)CC2)cc1F` [Example 191, 4-((1-(2-Chlorobenzyl)piperidin-4-yl)methoxy)-5-cyclopropyl-2-fluoro-N-(methylsulfonyl)benzamide]: 32 nM; `O=C(NS(=O)(=O)C1CC1)c1cc(C2CC2)c(OCC2CCN(S(=O)(=O)c3ccccc3C(F)(F)F)CC2)cc1F` [Example 371, 5-cyclopropyl-N-(cyclopropylsulfonyl)-2-fluoro-4-((1-((2-(trifluoromethyl)phenyl)sulfonyl)piperidin-4-yl)methoxy)benzamide]: 20.3 nM; `C[C@H](c1cc(Cl)cc(C(F)(F)F)c1)N1CCC(C)(COc2cc(F)c(C(=O)NS(C)(=O)=O)cc2C2CC2)CC1` (single isomer, unassigned) [Example 278]: 3.3 nM.

As for `O=C(NS(=O)(=O)C1CC1)c1cc(C2CC2)c(OCC2CCN(S(=O)(=O)c3ccc(Br)c(Cl)c3)CC2)cc1F` [Example 391, 4-((1-((4-bromo-3-chlorophenyl)sulfonyl)piperidin-4-yl)methoxy)-5-cyclopropyl-N-(cyclopropylsulfonyl)-2-fluorobenzamide], the IC50 turned out to be 10.1 nM. Same read-out and setting: for `CS(=O)(=O)NC(=O)c1cc(C2CC2)c(OCC2CN([C@@H](c3ccccc3)c3ccccc3Cl)C2)cc1F` [Example 150, (S)-4-((1-((2-Chlorophenyl)(phenyl)methyl)azetidin-3-yl)methoxy)-5-cyclopropyl-2-fluoro-N-(methylsulfonyl)benzamide] the value was 100 nM; for `O=C(NS(=O)(=O)N1CCC1)c1cc(C2CC2)c(CN2CCC[C@H](Oc3cc(Cl)cc(Cl)c3)C2)cc1F` [Example 54, (S)—N-(azetidin-1-ylsulfonyl)-5-cyclopropyl-4-((3-(3,5-dichlorophenoxy)piperidin-1-yl)methyl)-2-fluorobenzamide, acetic acid salt], 22 nM. On to `CS(=O)(=O)NC(=O)c1cc(C2CC2)c(OCC2CN([C@H](c3ccccc3)c3cccc(C#N)c3)C2)cc1F` [Example 109, (R)-4-((1-((3-Cyanophenyl)(phenyl)methyl)azetidin-3-yl)methoxy)-5-cyclopropyl-2-fluoro-N-(methylsulfonyl)benzamide], for which the IC50 stood at 53.6 nM.

Take `CS(=O)(=O)NC(=O)c1cc(C2CC2)c(OCC2CCN(c3ccccc3)CC2)cc1F` [Example 79, 5-cyclopropyl-2-fluoro-N-(methylsulfonyl)-4-((1-phenylpiperidin-4-yl)methoxy)benzamide]: the IC50 worked out at 9.9 nM.

`CS(=O)(=O)NC(=O)c1cc(C2CC2)c(OC[C@H]2CCCN(Cc3cc(Cl)cc(Cl)c3)C2)cc1F` [Example 336, (S)-5-cyclopropyl-4-((1-(3,5-dichlorobenzyl)piperidin-3-yl)methoxy)-2-fluoro-N-(methylsulfonyl)benzamide]: the IC50 worked out at 4.9 nM.
